Source: US6433023B1, “Compositions having anti-leishmanial activity” (The United States of America as represented by the …, priority 1997, dated 2002)
Like-named read-outs stand apart in the source and are kept apart here.

Tested on: Leishmania promastigotes
Assay: Testing of agents against Leishmania species in parasite culture medium (anti-leishmanial activity)
Type: cell-based
Details: for IC50: read-out: concentrations effective at the IC50 level; for effectiveness compared with trifluralin: comparison with trifluralin
Text: […]-3,5-dinitrobenzotrifluoride (compound 1), 4-chloro-3-nitrobenzotrifluoride (compound 4), 3-amino-4-chlorobenzotrifluoride (compound 5), 2-bromo-3,5(bis(trifluoromethyl)aniline (compound 6), 4-methoxy-3-nitrobenzotrifluoride (compound 7), and 2-nitro-4-(trifluoromethyl)thiophenol (compound 8) were obtained from Aldrich Chemical Company and were used to without further purification. Trifluralin was obtained from Reidel de Haen and was used without further purification. 4-chloro-3-nitro-5-sulfonylbenzotrifluoride (compound 2) and 4-chloro-3-nitro-5-carboxybenzotrifluoride (compound 3) were obtained from the Walter Reed Army Institute of Research inventory and were used without further purification. All of the agents were initially dissolved in dimethyl sulfoxide and were then diluted at 100 fold in parasitic culture medium before being tested against Leishmania species. […]

[1] = against Leishmania species, agents dissolved in dimethyl sulfoxide, diluted 100 fold in parasitic culture medium

Row | IC50 [1] | SMILES | effectiveness compared with trifluralin (against Leishmania species) | IC50 (Leishmania)
1 | 15 µM | O=[N+]([O-])c1cc(C(F)(F)F)ccc1S [compound 8, 2-nitro-4-(trifluoromethyl)thiophenol] | much more effective than trifluralin | 
2 | 120 µM | O=C(O)c1cc(C(F)(F)F)cc([N+](=O)[O-])c1Cl [compound 3, 4-chloro-3-nitro-5-carboxybenzotrifluoride] |  | 
3 | 26 µM | Nc1cc(C(F)(F)F)cc(C(F)(F)F)c1Br [compound 6, 2-bromo-3,5-bis(trifluoromethyl)aniline] |  | 
4 | 6.1 µM | O=[N+]([O-])C1=CC(C(F)(F)F)=CC(=S(=O)=O)C1Cl (stereo not drawn) [compound 2, 4-chloro-3-nitro-5-sulfonylbenzotrifluoride] | much more effective than trifluralin | 
5 | 77 µM | Nc1cc(C(F)(F)F)ccc1Cl [compound 5, 3-amino-4-chlorobenzotrifluoride] |  | 
6 |  | O=[N+]([O-])c1cc(C(F)(F)F)cc([N+](=O)[O-])c1Cl [compound 1, 4-chloro-3,5 dinitrobenzotrifluoride] | much more effective than trifluralin | 0.89 µM
7 | 68 µM | COc1ccc(C(F)(F)F)cc1[N+](=O)[O-] [compound 7, 4-methoxy-3-nitrobenzotrifluoride] |  | 

Row | SMILES | IC50 [1] | effectiveness compared with trifluralin (against Leishmania species) | IC50 (Leishmania)
8 | O=[N+]([O-])c1cc(C(F)(F)F)ccc1Cl [compound 4, 4-chloro-3-nitrobenzotrifluoride] | 35 µM | much more effective than trifluralin | 
